Results on 45 compounds are retold here after patent US11912703B2, “6-azaindole compounds” (BRISTOL-MYERS SQUIBB COMPANY, priority 2017, dated 2024).

Assay [1] concerns the target human TLR7 (Homo sapiens (Human), UniProt Q9NYK1). The experiment in a line: TLR7 inhibition reporter assay (HEK-Blue SEAP). The conditions noted are these: HEK-Blue cells overexpressing human TLR7, gardiquimod 7.5 μM stimulation. Type of assay: cell-based. On the technique in general: A reporter such as luciferase makes a cellular process visible.
Assay [2] deals with human TLR8 (Homo sapiens (Human), UniProt Q9NR97). As to the kind of experiment: TLR8 inhibition reporter assay (HEK-Blue SEAP).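 Also: SEAP driven by IFN-β minimal promoter with five NF-κB and AP-1 sites, compounds tested 0.05 nM to 50 µM, 22 h incubation, inhibition relative to agonist plus DMSO wells.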
Chain of human TLR8 (Q9NR97 27-1041): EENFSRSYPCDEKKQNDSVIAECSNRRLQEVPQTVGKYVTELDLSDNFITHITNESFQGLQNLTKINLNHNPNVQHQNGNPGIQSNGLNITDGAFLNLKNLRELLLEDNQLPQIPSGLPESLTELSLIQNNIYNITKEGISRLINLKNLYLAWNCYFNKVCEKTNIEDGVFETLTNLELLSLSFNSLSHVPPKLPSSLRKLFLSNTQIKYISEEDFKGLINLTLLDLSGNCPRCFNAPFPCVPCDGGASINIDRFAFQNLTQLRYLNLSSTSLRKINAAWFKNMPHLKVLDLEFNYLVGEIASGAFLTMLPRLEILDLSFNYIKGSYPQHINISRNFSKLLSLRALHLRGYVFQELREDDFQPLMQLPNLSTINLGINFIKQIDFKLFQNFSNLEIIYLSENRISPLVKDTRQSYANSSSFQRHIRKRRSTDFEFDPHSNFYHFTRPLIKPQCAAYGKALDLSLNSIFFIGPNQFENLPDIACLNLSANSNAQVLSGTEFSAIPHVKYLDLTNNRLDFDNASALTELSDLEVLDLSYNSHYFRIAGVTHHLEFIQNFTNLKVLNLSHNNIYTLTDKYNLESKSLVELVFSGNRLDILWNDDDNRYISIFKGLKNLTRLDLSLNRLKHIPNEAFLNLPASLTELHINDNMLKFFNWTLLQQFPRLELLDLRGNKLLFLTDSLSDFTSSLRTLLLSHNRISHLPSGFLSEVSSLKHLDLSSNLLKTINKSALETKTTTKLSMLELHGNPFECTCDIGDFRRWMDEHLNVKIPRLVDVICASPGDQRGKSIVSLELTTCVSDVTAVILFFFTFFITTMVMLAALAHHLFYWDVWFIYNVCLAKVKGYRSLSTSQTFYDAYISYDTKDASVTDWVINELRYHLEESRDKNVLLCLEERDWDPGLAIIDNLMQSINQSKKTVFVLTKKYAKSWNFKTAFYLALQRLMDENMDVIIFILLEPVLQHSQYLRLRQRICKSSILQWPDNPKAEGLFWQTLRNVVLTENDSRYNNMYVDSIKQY
The target in assay [3] is human TLR9 (Homo sapiens (Human), UniProt Q9NR96). The experiment in a line: TLR9 inhibition reporter assay (HEK-Blue SEAP).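 Also: SEAP driven by IFN-β minimal promoter carrying five NF-κB and AP-1 sites, 22 h at 37 °C, compounds 0.05 nM–50 µM, inhibition scaled between agonist-plus-DMSO and reference-inhibitor wells.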
Chain of human TLR9 (Q9NR96 26-1032): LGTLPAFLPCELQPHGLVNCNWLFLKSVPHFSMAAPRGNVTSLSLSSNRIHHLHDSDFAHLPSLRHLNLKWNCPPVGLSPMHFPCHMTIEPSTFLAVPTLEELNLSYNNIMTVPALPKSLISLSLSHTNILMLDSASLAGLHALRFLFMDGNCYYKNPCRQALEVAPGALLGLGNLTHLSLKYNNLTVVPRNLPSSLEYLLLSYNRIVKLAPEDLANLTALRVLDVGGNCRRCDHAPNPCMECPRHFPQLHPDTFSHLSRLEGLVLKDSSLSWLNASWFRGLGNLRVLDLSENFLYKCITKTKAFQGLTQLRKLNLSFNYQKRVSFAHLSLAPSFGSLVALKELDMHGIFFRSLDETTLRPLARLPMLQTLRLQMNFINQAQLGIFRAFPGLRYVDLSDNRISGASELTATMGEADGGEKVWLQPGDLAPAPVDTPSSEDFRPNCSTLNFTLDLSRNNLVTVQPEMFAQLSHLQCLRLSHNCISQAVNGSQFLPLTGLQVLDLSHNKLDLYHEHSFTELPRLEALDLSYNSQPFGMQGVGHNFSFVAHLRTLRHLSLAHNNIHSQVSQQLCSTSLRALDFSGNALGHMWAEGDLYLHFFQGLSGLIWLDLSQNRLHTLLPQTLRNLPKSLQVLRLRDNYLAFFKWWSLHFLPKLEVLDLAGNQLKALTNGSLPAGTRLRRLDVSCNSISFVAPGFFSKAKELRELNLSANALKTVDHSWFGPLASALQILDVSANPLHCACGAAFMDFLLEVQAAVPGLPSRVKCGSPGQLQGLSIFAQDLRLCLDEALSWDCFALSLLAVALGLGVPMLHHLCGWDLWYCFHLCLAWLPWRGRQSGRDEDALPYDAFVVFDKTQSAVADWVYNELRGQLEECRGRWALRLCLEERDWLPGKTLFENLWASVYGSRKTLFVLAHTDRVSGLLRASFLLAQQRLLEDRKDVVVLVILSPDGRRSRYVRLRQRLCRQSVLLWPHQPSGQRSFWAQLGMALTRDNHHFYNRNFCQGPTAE
Description: HEK-Blue™-cells (Invivogen) overexpressing human TLR7, TLR8 or TLR9 receptors were used for screening inhibitors of these receptors using an inducible SEAP (secreted embryonic alkaline phosphatase) reporter gene under the control of the IFN-β minimal promoter fused to five NF-κB and AP-1-binding sites. Briefly, cells are seeded into Greiner 384 well plates (15000 cells per well for TLR7, 20,000 for TLR8 and 25,000 for TLR9) and then treated with test compounds in DMSO to yield a final dose response concentration range of 0.05 nM-50 μM. After a 30 minute compound pre-treatment at room temperature, the cells are then stimulated with a TLR7 ligand (gardiquimod at a final concentration of 7.5 μM), TLR8 ligand (R848 at a final concentration of 15.9 μM) or TLR9 ligand (ODN2006 at a final concentration of 5 nM) to activate NF-κB and AP-1 which induce the production of SEAP. After a 22 hour incubation at 37° C., 500 CO2, SEAP levels are determined with the addition of HEK-Blue™ Detection reagent (Invivogen), a cell culture medium that allows for detection of SEAP, according to manufacturer's specifications.
Setting [4] is: read-out: TLR8 IC50; HEK-Blue cells overexpressing human TLR8, R848 15.9 μM stimulation, SEAP reporter.
Where [5] appears, read: read-out: TLR9 IC50; HEK-Blue cells overexpressing human TLR9, ODN2006 5 nM stimulation, SEAP reporter.

Like-named read-outs stand apart in the source and are kept apart here. Where only a bound is given, the exact number is not on record here.

Chain of human TLR7 (Q9NYK1 27-1049): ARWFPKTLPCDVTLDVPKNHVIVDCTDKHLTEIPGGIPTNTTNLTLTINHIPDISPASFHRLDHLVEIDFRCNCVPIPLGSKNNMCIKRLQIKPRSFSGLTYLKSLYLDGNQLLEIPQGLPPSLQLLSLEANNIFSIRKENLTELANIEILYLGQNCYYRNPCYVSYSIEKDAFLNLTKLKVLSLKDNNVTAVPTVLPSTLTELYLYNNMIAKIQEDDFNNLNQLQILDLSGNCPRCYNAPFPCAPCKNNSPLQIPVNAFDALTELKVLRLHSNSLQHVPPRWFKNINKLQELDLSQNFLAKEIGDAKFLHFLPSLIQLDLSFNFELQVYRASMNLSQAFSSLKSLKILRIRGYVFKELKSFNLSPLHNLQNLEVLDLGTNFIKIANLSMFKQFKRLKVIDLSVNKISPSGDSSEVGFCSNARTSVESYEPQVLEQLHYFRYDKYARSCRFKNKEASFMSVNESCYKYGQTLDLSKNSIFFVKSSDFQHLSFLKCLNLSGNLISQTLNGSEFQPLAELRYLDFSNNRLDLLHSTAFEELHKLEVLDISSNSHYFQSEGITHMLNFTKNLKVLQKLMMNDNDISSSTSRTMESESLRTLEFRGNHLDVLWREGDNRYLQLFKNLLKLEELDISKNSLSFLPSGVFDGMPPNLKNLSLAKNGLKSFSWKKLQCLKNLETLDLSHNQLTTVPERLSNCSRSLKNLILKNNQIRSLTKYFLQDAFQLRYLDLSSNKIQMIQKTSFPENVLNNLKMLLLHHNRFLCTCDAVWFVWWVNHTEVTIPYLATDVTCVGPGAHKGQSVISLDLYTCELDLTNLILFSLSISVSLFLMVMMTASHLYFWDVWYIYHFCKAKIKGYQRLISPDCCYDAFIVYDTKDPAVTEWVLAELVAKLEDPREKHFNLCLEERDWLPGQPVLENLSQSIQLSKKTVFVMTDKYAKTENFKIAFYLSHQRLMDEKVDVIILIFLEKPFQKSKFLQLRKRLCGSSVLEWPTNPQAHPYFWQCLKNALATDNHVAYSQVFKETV

Regarding `COc1cc(-c2[nH]c3cnc(C4CCC(NC(C)C)CC4)c(F)c3c2C(C)C)cn2ncnc12` (stereo not drawn) [Example 159], the IC50 in assay [1] stood at 3.4 nM; in assay [2] (setting [4]), 4.5 nM; in assay [3] (setting [5]), 455 nM.
For `CCN(C)C1CCC(c2ncc3[nH]c(-c4cc(C)c5ncnn5c4)c(C(C)C)c3c2F)CC1` (stereo not drawn) [Example 163] the same measures were 0.39 nM, 0.87 nM and 1320 nM.
For `Cc1c(-c2[nH]c3cnc(N4CCN(CC(=O)N(C)C)CC4)c(F)c3c2C(C)C)cn2ncnc2c1C` [Example 428] the same measures were 12 nM, 1.1 nM and 39500 nM.
Regarding `Cc1cc(-c2[nH]c3cnc(C4CCC(NCC(C)(C)C)CC4)c(F)c3c2C(C)C)cn2ncnc12` (stereo not drawn) [Example 48], the IC50 was 12 nM in assay [1], 13 nM in assay [2] (setting [4]) and 9530 nM in assay [3] (setting [5]).
With `Cc1c(-c2[nH]c3cnc(C4CCC(NC56CC(C5)C6)CC4)c(F)c3c2C(C)C)cn2ncnc2c1C` (stereo not drawn) [Example 238], the IC50 in assay [1] amounted to 62 nM; in assay [2] (setting [4]), 21 nM; in assay [3] (setting [5]), 28500 nM.
`CCN(C)C1CCC(c2ncc3[nH]c(-c4cc(C)c5ncnn5c4)c(C(C)C)c3c2F)CC1` (stereo not drawn) [Example 199]: the IC50 in assay [1] stood at 0.83 nM; in assay [2] (setting [4]), 2 nM; in assay [3] (setting [5]), 1210 nM.
For `Cc1c(-c2[nH]c3cnc(N4CCC(NC(C)C)CC4)c(F)c3c2C(C)C)cn2ncnc2c1C` [Example 166] the same measures were 0.41 nM, 0.18 nM and 3340 nM.
For `Cc1c(-c2[nH]c3cnc(N4CC5(C4)CN(C4CCOCC4)C5)c(F)c3c2C(C)C)cn2ncnc2c1C` [Example 401] the same measures were 27 nM, 4.4 nM and 6440 nM.
The matching figures for `Cc1c(-c2[nH]c3cnc(N4CC5(C4)CN(C4CCN(C(C)C)CC4)C5)c(F)c3c2C(C)C)cn2ncnc2c1C` [Example 406]: 8.4 nM, 4.8 nM and 937 nM.
For the compound `COc1cc(-c2[nH]c3cnc(N4CCC(NC56CC(C5)C6)CC4)c(C)c3c2C(C)C)cn2ncnc12` [Example 56], the IC50 in assay [1] amounted to 1.8 nM; in assay [2] (setting [4]), 1.5 nM; in assay [3] (setting [5]) it was 1010 nM.
For `Cc1c(-c2[nH]c3cnc(N4CCN(CC5CC5)CC4)c(F)c3c2C(C)C)cn2ncnc2c1C` [Example 430] the same measures were 5.9 nM, 0.27 nM and 6110 nM.
For `Cc1cc(-c2[nH]c3cnc(N4CCC(NCC5(C)COC5)CC4)c(F)c3c2C(C)C)cn2ncnc12` [Example 129] the same measures were 0.75 nM, 0.15 nM and 5900 nM.
For `Cc1c(-c2[nH]c3cnc(C4CCN(C5COC5)CC4)cc3c2C(C)C)cn2ncnc2c1C` [Example 30] the same measures were 4.7 nM, 7.7 nM and 855 nM.
As to `Cc1c(-c2[nH]c3cnc(N4CCN(CC(C)C)C[C@H]4C)c(F)c3c2C(C)C)cn2ncnc2c1C` [Example 460], the results for the IC50 in assay [1], in assay [2] (read-out: TLR8 IC50; HEK-Blue cells overexpressing human TLR8; R848 15.9 μM stimulation; SEAP reporter) and in assay [3] (read-out: TLR9 IC50; HEK-Blue cells overexpressing human TLR9; ODN2006 5 nM stimulation; SEAP reporter) were 10 nM, 4.4 nM and more than 50000 nM, respectively.
Regarding `Cc1c(-c2[nH]c3cnc(N4CCC(NC5COC5)CC4)c(F)c3c2C(C)C)cn2ncnc2c1C` [Example 146], the IC50 came out at 1.1 nM in assay [1], 0.46 nM in assay [2] (setting [4]) and 6660 nM in assay [3] (setting [5]).
Regarding `COc1cc(-c2[nH]c3cnc(C4CCC(NC5COC5)CC4)cc3c2C(C)C)cn2ncnc12` (stereo not drawn) [Example 330], the figures for the IC50 in assay [1], in assay [2] (setting [4]) and in assay [3] (setting [5]) were 1.1 nM, 5.5 nM and 255 nM, respectively.
The matching figures for `COc1cc(-c2[nH]c3cnc(N4CCN(C(=O)CN(C)C)C[C@H]4C)c(F)c3c2C(C)C)cn2ncnc12` [Example 439]: 7.1 nM, 4.3 nM and 11200 nM.
For `Cc1c(-c2[nH]c3cnc(C4CCNCC4)cc3c2C(C)C)cn2ncnc2c1C` [Example 28] the same measures were 13 nM, 26 nM and 608 nM.
For the compound `Cc1c(-c2[nH]c3cnc(C4CCNCC4)c(F)c3c2C(C)C)cn2ncnc2c1C` [Example 13], the figures for the IC50 in assay [1], in assay [2] (setting [4]) and in assay [3] (setting [5]) were 6.5 nM, 6.8 nM and 2780 nM, respectively.
For `COc1cc(-c2[nH]c3cnc(C4CCN(C(C)C)CC4)c(F)c3c2C(C)C)cn2ncnc12` [Example 18] the same measures were 0.76 nM, 2.6 nM and 1790 nM.
For `Cc1cc(-c2[nH]c3cnc(C4CCC(N5CCC5)CC4)c(F)c3c2C(C)C)cn2ncnc12` (stereo not drawn) [Example 109] the same measures were 0.61 nM, 1.7 nM and 1660 nM.
The matching figures for `CNC(=O)CN(C)C1CCC(c2cc3c(C(C)C)c(-c4cc(OC)c5ncnn5c4)[nH]c3cn2)CC1` (stereo not drawn) [Example 328]: 11 nM, 60 nM and 1390 nM.
With `Cc1c(-c2[nH]c3cnc(C4CCC(NC5CCOC5)CC4)cc3c2C(C)C)cn2ncnc2c1C` (stereo not drawn) [Example 327], the IC50 is 7.1 nM in assay [1], 17 nM in assay [2] (setting [4]) and 771 nM in assay [3] (setting [5]).
For `Cc1c(-c2[nH]c3cnc(C4CCC(NC(C)C)CC4)cc3c2C(C)C)cn2ncnc2c1C` (stereo not drawn) [Example 326] the same measures were 14 nM, 78 nM and 1220 nM.
In the case of `CNC(=O)CN1CCC(c2cc3c(C(C)C)c(-c4cn5ncnc5c(C)c4C)[nH]c3cn2)CC1` [Example 27], the IC50 in assay [1] was found to be 49 nM; in assay [2] (setting [4]), 86 nM; in assay [3] (setting [5]), 477 nM.
As to `Cc1c(-c2[nH]c3cnc(C4CCC(NC(C)C)CC4)c(F)c3c2C(C)C)cn2ncnc2c1C` (stereo not drawn) [Example 136], the figures for the IC50 in assay [1], in assay [2] (setting [4]) and in assay [3] (setting [5]) were 0.41 nM, 0.32 nM and 620 nM, respectively.
`COc1cc(-c2[nH]c3cnc(C4CCC(N(C)C(C)C)C4)cc3c2C(C)C)cn2ncnc12` (stereo not drawn) [Example 63]: in assay [3] (setting [5]), the half-maximal inhibitory concentration (IC50) came to 2990 nM.
On to `COc1cc(-c2[nH]c3cnc(C4CCC(NC5(C)COC5)CC4)c(F)c3c2C(C)C)cn2ncnc12` (stereo not drawn) [Example 192], for which the IC50 in assay [2] (setting [4]) was determined as 3.9 nM; in assay [3] (setting [5]), 3140 nM.
As to `Cc1cc(-c2[nH]c3cnc(N4CCC(N(C)C(C)C)CC4)c(F)c3c2C(C)C)cn2ncnc12` [Example 68], the concentration for half-maximal inhibition (IC50) in assay [3] (setting [5]) turned out to be 5290 nM.
On to `COc1cc(-c2[nH]c3cnc(N4CCN(CCS(C)(=O)=O)CC4)c(F)c3c2C(C)C)cn2ncnc12` [Example 362], for which the IC50 in assay [1] was found to be 4.9 nM; in assay [2] (setting [4]), 4 nM.
As for `COc1cc(-c2[nH]c3cnc(C4CCC(N5CCC5)CC4)c(F)c3c2C(C)C)cn2ncnc12` (stereo not drawn) [Example 46], the values for the IC50 in assay [1] and in assay [2] (setting [4]) were 0.98 nM and 1.6 nM, respectively.
For `COc1cc(-c2[nH]c3cnc(C4CCC(N5CC(OC)C5)CC4)c(C)c3c2C(C)C)cn2ncnc12` (stereo not drawn) [Example 62], the IC50 in assay [2] (setting [4]) was determined as 21 nM; in assay [3] (setting [5]) it was 417 nM.
For `COc1cc(-c2[nH]c3cnc(C4CCC(N5CC(OC)C5)CC4)c(C)c3c2C(C)C)cn2ncnc12` (stereo not drawn) [Example 180] the same measures were 9.6 nM and 664 nM.
For `COc1cc(-c2[nH]c3cnc(C4CCC(NC5(C)COC5)CC4)c(F)c3c2C(C)C)cn2ncnc12` (stereo not drawn) [Example 105] the same measures were 0.59 nM and 2250 nM.
For `COc1cc(-c2[nH]c3cnc(C4CCC(NCC(C)(C)OC)CC4)c(C)c3c2C(C)C)cn2ncnc12` (stereo not drawn) [Example 206] the same measures were 13 nM and 260 nM.
With `COc1cc(-c2[nH]c3cnc(C4CCC(N(C)C(C)C)C4)cc3c2C(C)C)cn2ncnc12` (stereo not drawn) [Example 145], the IC50 in assay [3] (setting [5]) is 506 nM.
As for `COc1cc(-c2[nH]c3cnc(C4CCC(NCC(C)(C)O)CC4)c(F)c3c2C(C)C)cn2ncnc12` (stereo not drawn) [Example 195], the figures for the IC50 in assay [2] (setting [4]) and in assay [3] (setting [5]) were 3 nM and 577 nM, respectively.
For `Cc1c(-c2[nH]c3cnc(C4CCN(CC(=O)N(C)C)CC4)c(F)c3c2C(C)C)cn2ncnc2c1C` [Example 22], the IC50 in assay [1] came out at 6.2 nM; in assay [2] (setting [4]), 1.8 nM.
With `COc1cc(-c2[nH]c3cnc(N4CCC(N(C)CC(C)(C)C)CC4)c(F)c3c2C(C)C)cn2ncnc12` [Example 47], the IC50 came to 1.5 nM in assay [2] (setting [4]) and 2580 nM in assay [3] (setting [5]).
Turning to `COc1cc(-c2[nH]c3cnc(C4CCC(NC5CCOCC5)CC4)c(F)c3c2C(C)C)cn2ncnc12` (stereo not drawn) [Example 194], the IC50 in assay [3] (setting [5]) worked out at 575 nM.
Consider `COc1cc(-c2[nH]c3cnc(N4CCN(CC(=O)N5CCOCC5)CC4)c(F)c3c2C(C)C)cn2ncnc12` [Example 363], for which the IC50 in assay [2] (setting [4]) worked out at 3.7 nM; in assay [3] (setting [5]) it was 43700 nM.
As to `COc1cc(-c2[nH]c3cnc(C4CCC(NC5CCOCC5)CC4)c(F)c3c2C(C)C)cn2ncnc12` (stereo not drawn) [Example 160], in assay [3] (setting [5]), the IC50 worked out at 1280 nM.
As for `COc1cc(-c2[nH]c3cnc(C4CCC(NCC(C)(C)OC)CC4)c(C)c3c2C(C)C)cn2ncnc12` (stereo not drawn) [Example 207], the IC50 was found to be 7.7 nM in assay [2] (setting [4]) and 437 nM in assay [3] (setting [5]).
Regarding `Cc1cc(-c2[nH]c3cnc(C4CCNCC4)cc3c2C(C)C)cn2ncnc12` [Example 4, 6-(3-isopropyl-5-(piperidin-4-yl)-1h-pyrrolo[2,3-c]pyridin-2-yl)-8-methyl-[1,2,4]triazolo [1,5-a]pyridine], the IC50 came out at 973 nM in assay [2] (setting [4]) and 13100 nM in assay [3] (setting [5]).
`COc1cc(-c2[nH]c3cnc(C4CCC(NCC(C)(C)O)CC4)c(F)c3c2C(C)C)cn2ncnc12` (stereo not drawn) [Example 74]: the IC50 came out at 0.77 nM in assay [2] (setting [4]) and 694 nM in assay [3] (setting [5]).

A word on the IC50: it is the concentration needed to halve the response being measured.
